The source of these data is ChEMBL document CHEMBL5338747, “Discovery of Quaternized Pyridine-Thiazole-Pleuromutilin Derivatives with Broad-Spectrum Antibacterial and Potent Anti-MRSA Activity” (J Med Chem, 2023).

By ED50 is commonly meant the midpoint of the dose-response relation.

Data set [1] deals with Staphylococcus aureus. The experiment in a line: Antibacterial activity against methicillin-resistant Staphylococcus aureus ATCC 33591 infected in Kunming mouse assessed as animal survival rate at 5 mg/kg, ip for 7 days starting from 1 hr post-infection. The conditions noted are these: ATCC 33591, 168 h, time 7 day. Format: functional.
The test system of data set [2] is Staphylococcus aureus. The data set can be described thus: Antibacterial activity against methicillin-resistant Staphylococcus aureus ATCC 33591 infected in ip dosed Kunming mouse assessed as protection against bacterial infection administered for 7 days starting from 1 hr post-infection. It is filed as functional.
Data set [3] is described as follows: Drug metabolism in Sprague-Dawley rat plasma assessed as metabolite formation at 10 mg/kg, iv measured after 1 hr by UPLC/Q-TOF-MS analysis. Format: ADME, organism-based. The following applies: in vivo.
The next data set relates to Escherichia coli. The experiment in a line: Bactericidal activity against Escherichia coli ATCC 25922 assessed as reduction in bacterial colonies formation at 2XMIC incubated for 12 hrs in MHB followed by culturing on agar plate for 24 hrs by time-kill kinetics based analysis. Also on record: scale not given: the % may be the effect or the level left. It is filed as functional. The following applies: time 36 hrs.

Data set [4] has as its system Staphylococcus aureus. The experiment in a line: Disruption of biofilm formation in methicillin-resistant Staphylococcus aureus ATCC 33591 assessed as inhibition of biofilm formation at MIC measured after 24 hrs by crystal violet staining based analysis. It is filed as functional.

SMILES strings stand for the structures.

With `C=C[C@]1(C)C[C@@H](OC(=O)CSc2nc(-c3cc[n+](Cc4ccc(C)cc4)cc3)cs2)[C@]2(C)[C@H](C)CC[C@]3(CCC(=O)[C@H]32)[C@@H](C)[C@@H]1O.[Br-]`, in the data set with Staphylococcus aureus [1], the survival at 5 mg/kg amounted to 57.1%. The ED50 with Staphylococcus aureus [2] (ATCC 33591, 168 h, time 7 day) was determined as 4.94 mg/kg. In addition, the Activity result in the data set with Staphylococcus aureus [2] (time 7.0 day) was “Dose-Dependent Effect”; in the data set on Escherichia coli, 100%. Moreover, the Drug metabolism entry in data set [3] is “Metabolite_Detected”. The “inhibition (INH)” value with Staphylococcus aureus [4] came out at 57.97%.
